The values below come from patent publication US20150005288A1, “SUBSTITUTED PHENYLIMIDAZOPYRAZOLES AND USE THEREOF” (Bayer Intellectual Property GmbH, priority 2012, published 2015).

Structures can show the parent of a compound that is named as a salt.

The IC50 is the concentration that gives 50% inhibition. The low end stands for greater potency in that assay, the high end for weaker potency in that assay.

The target in the assay is T1, intracellular domain of human Tie2 (GST fusion protein) (Homo sapiens, UniProt Q02763).
T1 construct: intracellular domain of human Tie2 (amino acids 776-1124); made in house; host or cells: Baculovirus-infected insect cells (Hi5)
Put plainly: Tie2 kinase assay (Tie2-TR-FRET). The conditions noted are these: ATP concentration 1 mM, in some cases means of several independent determinations. Format: biochemical. Summed up: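 High ATP (1 mM final) with 1 μM biotin-peptide substrate; reaction 60 min at 22 °C after 15 min compound pre-binding to GST-Tie2 (aa 776-1124) in HEPES pH 7 with Mg/Mn. Phosphopeptide detected by TR-FRET emission ratio 665/620 nm. IC50 from 4-parameter fit over 20 μM to 0.073 nM, duplicates.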

T1 sequence (Q02763 776-1124): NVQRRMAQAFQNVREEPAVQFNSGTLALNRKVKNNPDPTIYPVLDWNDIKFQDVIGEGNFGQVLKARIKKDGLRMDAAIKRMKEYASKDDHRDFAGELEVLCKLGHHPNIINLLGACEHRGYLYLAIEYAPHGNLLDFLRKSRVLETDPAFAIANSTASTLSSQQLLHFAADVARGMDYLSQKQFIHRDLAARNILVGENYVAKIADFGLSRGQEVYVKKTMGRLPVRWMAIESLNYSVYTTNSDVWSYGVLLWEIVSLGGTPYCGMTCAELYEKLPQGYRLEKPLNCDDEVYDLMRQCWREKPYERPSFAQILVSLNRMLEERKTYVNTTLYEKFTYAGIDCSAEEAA

The compound `Cc1cc(C(=O)Nc2cc(-n3ccn4nc(-c5cccnc5)cc34)c(C)cc2C)cc(S(F)(F)(F)(F)F)c1` [Example 111, N-{2,4-Dimethyl-5-[6-(pyridin-3-yl)-1H-imidazo[1,2-b]pyrazol-1-yl]phenyl}-3-methyl-5-(pentafluoro-λ^6-sulphanyl)benzamide] showed a half-maximal inhibitory concentration (IC50) of 0.7 nM.

Turning to `Cc1ccc(NC(=O)c2cccc(N3CCCC3)c2)cc1-n1ccn2nc(-c3cccnc3)cc12` [Example 56, N-{4-Methyl-3-[6-(pyridin-3-yl)-1H-imidazo[1,2-b]pyrazol-1-yl]phenyl}-3-(pyrrolidin-1-yl)-benzamide], it took 52 nM to reach half-maximal inhibition (IC50).

In turn, `Cc1cc(C)c(-n2ccn3nc(-c4cncnc4)cc23)cc1NC(=O)c1cc(C#N)cc(S(F)(F)(F)(F)F)c1` [Example 166, 3-Cyano-N-{2,4-dimethyl-5-[6-(pyrimidin-5-yl)-1H-imidazo[1,2-b]pyrazol-1-yl]phenyl}-5-(pentafluoro-λ^6-sulphanyl)benzamide] yielded an IC50 of 0.3 nM. Against the preceding compound, the IC50 is about 170-fold lower.

With `CCOCCOc1cccc(C(=O)Nc2cc(-n3ccn4nc(-c5cccnc5)cc34)c(C)cc2C)c1` [Example 135, N-{2,4-Dimethyl-5-[6-(pyridin-3-yl)-1H-imidazo[1,2-b]pyrazol-1-yl]phenyl}-3-(2-ethoxyethoxy)-benzamide], 607 nM corresponded to half-maximal inhibition (IC50).

Take `Cc1ccc(NC(=O)c2cccc(S(F)(F)(F)(F)F)c2)cc1-n1ccn2nc(-c3cncnc3)cc12` [Example 163, N-{4-Methyl-3-[6-(pyrimidin-5-yl)-1H-imidazo[1,2-b]pyrazol-1-yl]phenyl}-3-(pentafluoro-λ^6-sulphanyl)benzamide]: the IC50 amounted to 8.9 nM.

The compound `Cc1cc(C)c(-n2ccn3nc(-c4cccnc4)cc23)cc1NC(=O)c1cccc(C(C)(C)F)c1` [Example 142, N-{2,4-Dimethyl-5-[6-(pyridin-3-yl)-1H-imidazo[1,2-b]pyrazol-1-yl]phenyl}-3-(2-fluoropropan-2-yl)benzamide] returned a concentration for half-maximal inhibition (IC50) of 0.9 nM.

As for `Cc1ccc(-n2ccn3nc(-c4cccnc4)cc23)cc1NC(=O)c1cc(C#N)cc(C(C)(C)C)c1` [Example 79], half-maximal inhibition (IC50) was put at 26 nM.

`Cc1ccc(NC(=O)c2cc(Br)cc(S(F)(F)(F)(F)F)c2)c(C)c1-n1ccn2nc(-c3cccnc3)cc12` [Example 120, 3-Bromo-N-{2,4-dimethyl-3-[6-(pyridin-3-yl)-1H-imidazo[1,2-b]pyrazol-1-yl]phenyl}-5-(pentafluoro-λ^6-sulphanyl)benzamide] showed an IC50 of 37 nM.

On to `Cc1ccc(NC(=O)c2cc(CN3CCCC3)cc(S(F)(F)(F)(F)F)c2)cc1-n1ccn2nc(-c3cccnc3)cc12` [Example 33, N-{4-Methyl-3-[6-(pyridin-3-yl)-1H-imidazo[1,2-b]pyrazol-1-yl]phenyl}-3-(pentafluoro-λ^6-sulphanyl)-5-(pyrrolidin-1-ylmethyl)benzamide], for which the IC50 was 2.5 nM.

Take `Cc1cc(C)c(-n2ccn3nc(-c4cccnc4)cc23)cc1NC(=O)c1cc(N2CCCCC2)cc(S(F)(F)(F)(F)F)c1` [Example 143, N-{2,4-Dimethyl-5-[6-(pyridin-3-yl)-1H-imidazo[1,2-b]pyrazol-1-yl]phenyl}-3-(pentafluoro-λ^6-sulphanyl)-5-(piperidin-1-yl)benzamide]: the midpoint of inhibition, the IC50, lay at 1.3 nM. Against the preceding compound, the IC50 is about 1.9-fold lower.

As for `Cc1cc(C)c(-n2ccn3nc(-c4cccnc4)cc23)cc1NC(=O)c1cccc(N2CCC(F)(F)CC2)c1` [Example 138, 3-(4,4-Difluoropiperidin-1-yl)-N-{2,4-dimethyl-5-[6-(pyridin-3-yl)-1H-imidazo[1,2-b]pyrazol-1-yl]phenyl}benzamide], half-maximal inhibition (IC50) was put at 65 nM. This IC50 lies about 50-fold higher than the previous one.

Compound `Cc1ccc(-n2ccn3nc(-c4cccnc4)cc23)cc1NC(=O)c1cccc(S(F)(F)(F)(F)F)c1` [Example 76, N-{2-Methyl-5-[6-(pyridin-3-yl)-1H-imidazo[1,2-b]pyrazol-1-yl]phenyl}-3-(pentafluoro-λ^6-sulphanyl)benzamide] returned an IC50 of 82 nM.

`Cc1ccc(NC(=O)c2cc(C#N)cc(C3(O)CCC3)c2)cc1-n1ccn2nc(-c3cccnc3)cc12` [Example 92, 3-Cyano-5-(1-hydroxycyclobutyl)-N-{4-methyl-3-[6-(pyridin-3-yl)-1H-imidazo[1,2-b]pyrazol-1-yl]phenyl}benzamide] gave an IC50 of 29 nM.

For the compound `Cc1ccc(-n2ccn3nc(-c4cccnc4)cc23)cc1NC(=O)c1cc(Br)cc(C(C)(C)C)c1` [Example 78], the IC50 came to 115 nM.

In turn, `Cc1cc(C)c(-n2ccn3nc(-c4cccnc4)cc23)cc1NC(=O)c1cc(C#N)cc(S(F)(F)(F)(F)F)c1` [Example 147, 3-Cyano-N-{2,4-dimethyl-5-[6-(pyridin-3-yl)-1H-imidazo[1,2-b]pyrazol-1-yl]phenyl}-5-(pentafluoro-λ^6-sulphanyl)benzamide dihydrochloride] came in with an IC50 of 0.2 nM.

Compound `Cc1cc(C)c(-n2ccn3nc(-c4cccnc4)cc23)cc1NC(=O)c1cccc(OC(C)(C)C)c1` [Example 134, 3-tert-Butoxy-N-{2,4-dimethyl-5-[6-(pyridin-3-yl)-1H-imidazo[1,2-b]pyrazol-1-yl]phenyl}-benzamide] displayed a half-maximal inhibitory concentration (IC50) of 55 nM. This IC50 is about 280-fold higher than that of the compound before.

`O=C(Nc1ccc(Cl)c(-n2ccn3nc(-c4cccnc4)cc23)c1)c1cccc(S(F)(F)(F)(F)F)c1` [Example 96, N-{4-Chloro-3-[6-(pyridin-3-yl)-1H-imidazo[1,2-b]pyrazol-1-yl]phenyl}-3-(pentafluoro-λ^6-sulphanyl)benzamide]: the midpoint of inhibition, the IC50, lay at 47 nM. The IC50 values of the last two compounds are within 1.5-fold of each other.

In turn, `Cc1cc(C)c(-n2ccn3nc(-c4cccnc4)cc23)cc1NC(=O)c1cc(CC(N)=O)cc(S(F)(F)(F)(F)F)c1` [Example 153, 3-(2-Amino-2-oxoethyl)-N-{2,4-dimethyl-5-[6-(pyridin-3-yl)-1H-imidazo[1,2-b]pyrazol-1-yl]-phenyl}-5-(pentafluoro-λ^6-sulphanyl)benzamide] yielded a 50% inhibitory concentration (IC50) of 0.3 nM.

Compound `Cc1ccc(NC(=O)c2cccc(N(C)C)c2)cc1-n1ccn2nc(-c3cccnc3)cc12` [Example 59, 3-(Dimethylamino)-N-{4-methyl-3-[6-(pyridin-3-yl)-1H-imidazo[1,2-b]pyrazol-1-yl]phenyl}-benzamide] came in with an IC50 of 600 nM. Compared with the last compound, the IC50 is about 2000-fold higher.

In turn, `Cc1ccc(NC(=O)c2cc(C(F)(F)F)cc(S(N)(=O)=O)c2)cc1-n1ccn2nc(-c3cccnc3)cc12` [Example 122, N-{4-Methyl-3-[6-(pyridin-3-yl)-1H-imidazo[1,2-b]pyrazol-1-yl]phenyl}-3-sulphamoyl-5-(trifluoromethyl)benzamide] came in with an IC50 of 3.9 nM.

Compound `Cc1cc(C)c(-n2ccn3nc(-c4cccnc4)cc23)cc1NC(=O)c1cccc(OCCN(C)C)c1` [Example 137, 3-[2-(Dimethylamino)ethoxy]-N-{2,4-dimethyl-5-[6-(pyridin-3-yl)-1H-imidazo[1,2-b]pyrazol-1-yl]phenyl}benzamide] displayed an IC50 of 409 nM.

`Cc1ccc(NC(=O)c2cc(C#N)cc(S(F)(F)(F)(F)F)c2)cc1-n1ccn2nc(-c3cncs3)cc12` [Example 177, 3-Cyano-N-{4-methyl-3-[6-(1,3-thiazol-5-yl)-1H-imidazo[1,2-b]pyrazol-1-yl]phenyl}-5-(pentafluoro-λ^6-sulphanyl)benzamide] registered a 50% inhibitory concentration (IC50) of 1.8 nM.

Compound `Cc1c(F)cc(NC(=O)c2cc(C#N)cc(S(F)(F)(F)(F)F)c2)cc1-n1ccn2nc(-c3cccnc3)cc12` [Example 105, 3-Cyano-N-{3-fluoro-4-methyl-5-[6-(pyridin-3-yl)-1H-imidazo[1,2-b]pyrazol-1-yl]phenyl}-5-(pentafluoro-λ^6-sulphanyl)benzamide] gave an IC50 of 39 nM.

As to `Cc1ccc(NC(=O)c2cc(C(N)=O)cc(S(F)(F)(F)(F)F)c2)cc1-n1ccn2nc(-c3cccnc3)cc12` [Example 29, N-{4-Methyl-3-[6-(pyridin-3-yl)-1H-imidazo[1,2-b]pyrazol-1-yl]phenyl}-5-(pentafluoro-λ^6-sulphanyl)isophthalamide], the IC50 was 2 nM. Compared with the last compound, the IC50 is about 20-fold lower.

Turning to `Cc1ccc(NC(=O)c2cc(C(C)(C)O)cc(S(F)(F)(F)(F)F)c2)cc1-n1ccn2nc(-c3cncs3)cc12` [Example 178, 3-(2-Hydroxypropan-2-yl)-N-{4-methyl-3-[6-(1,3-thiazol-5-yl)-1H-imidazo[1,2-b]pyrazol-1-yl]-phenyl}-5-(pentafluoro-λ^6-sulphanyl)benzamide], half-maximal inhibition (IC50) required 0.8 nM.

Compound `COCCOCc1cc(C(=O)Nc2cc(-n3ccn4nc(-c5cccnc5)cc34)c(C)cc2C)cc(S(F)(F)(F)(F)F)c1` [Example 155, N-{2,4-Dimethyl-5-[6-(pyridin-3-yl)-1H-imidazo[1,2-b]pyrazol-1-yl]phenyl}-3-[(2-methoxy-ethoxy)methyl]-5-(pentafluoro-λ^6-sulphanyl)benzamide] registered an IC50 of 0.7 nM.

The compound `COC(=O)Cc1cc(C(=O)Nc2cc(-n3ccn4nc(-c5cccnc5)cc34)c(C)cc2C)cc(S(F)(F)(F)(F)F)c1` [Example 152, Methyl [3-({2,4-dimethyl-5-[6-(pyridin-3-yl)-1H-imidazo[1,2-b]pyrazol-1-yl]phenyl}carbamoyl)-5-(pentafluoro-λ^6-sulphanyl)phenyl]acetate] had an IC50 of 0.4 nM.

Turning to `N#Cc1cc(C(=O)Nc2ccc(C(F)(F)F)c(-n3ccn4nc(-c5cccnc5)cc34)c2)cc(S(F)(F)(F)(F)F)c1` [Example 95, 3-Cyano-5-(pentafluoro-λ^6-sulphanyl)-N-{3-[6-(pyridin-3-yl)-1H-imidazo[1,2-b]pyrazol-1-yl]-4-(trifluoromethyl)phenyl}benzamide], half-maximal inhibition (IC50) required 350 nM. This IC50 lies about 880-fold higher than the previous one.

In turn, `Cc1cc(C)c(-n2ccn3nc(-c4cccnc4)cc23)cc1NC(=O)c1cc(Br)cc(C(C)(C)C)c1` [Example 113, 3-Bromo-5-tert-butyl-N-{2,4-dimethyl-5-[6-(pyridin-3-yl)-1H-imidazo[1,2-b]pyrazol-1-yl]-phenyl}benzamide] registered an IC50 of 0.6 nM. This IC50 lies about 580-fold lower than the previous one.
